The values below come from patent US20090274778A1 (priority 2004, published 2009).

Assay [1] concerns the target T1, COX-1 enzyme (ovine) (Ovis aries, UniProt P05979).
T1 construct: purchased Cayman Chemical 60100
T1 sequence (P05979 25-600): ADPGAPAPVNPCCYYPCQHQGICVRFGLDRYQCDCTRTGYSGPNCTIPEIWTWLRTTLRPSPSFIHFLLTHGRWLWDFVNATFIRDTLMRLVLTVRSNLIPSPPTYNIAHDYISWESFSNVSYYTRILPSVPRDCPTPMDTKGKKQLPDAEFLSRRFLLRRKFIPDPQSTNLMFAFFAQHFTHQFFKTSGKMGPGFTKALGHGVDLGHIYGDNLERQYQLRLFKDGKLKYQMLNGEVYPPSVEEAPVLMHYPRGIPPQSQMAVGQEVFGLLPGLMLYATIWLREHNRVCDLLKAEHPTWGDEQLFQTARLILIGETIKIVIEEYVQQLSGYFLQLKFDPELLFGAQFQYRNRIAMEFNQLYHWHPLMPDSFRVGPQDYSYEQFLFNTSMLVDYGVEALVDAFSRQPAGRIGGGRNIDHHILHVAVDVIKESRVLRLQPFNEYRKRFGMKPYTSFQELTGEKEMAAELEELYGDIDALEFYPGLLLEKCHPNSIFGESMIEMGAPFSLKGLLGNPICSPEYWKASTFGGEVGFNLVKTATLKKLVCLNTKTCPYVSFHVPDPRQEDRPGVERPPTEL
Briefly: COX-1 enzyme inhibition (COX-1 synthesis of PGE2). It counts as biochemical. How it is done: Determination of COX-1 Enzyme Inhibition by Hops Extract—The ability of a test material to inhibit COX-1 synthesis of PGE2 was determined essentially as described by Noreen, Y., et al. (J. Nat. Prod. 61, 2-7, 1998). […]

Assay [2] deals with T2, COX-2 (Homo sapiens, UniProt P35354).
T2 sequence (P35354 18-604): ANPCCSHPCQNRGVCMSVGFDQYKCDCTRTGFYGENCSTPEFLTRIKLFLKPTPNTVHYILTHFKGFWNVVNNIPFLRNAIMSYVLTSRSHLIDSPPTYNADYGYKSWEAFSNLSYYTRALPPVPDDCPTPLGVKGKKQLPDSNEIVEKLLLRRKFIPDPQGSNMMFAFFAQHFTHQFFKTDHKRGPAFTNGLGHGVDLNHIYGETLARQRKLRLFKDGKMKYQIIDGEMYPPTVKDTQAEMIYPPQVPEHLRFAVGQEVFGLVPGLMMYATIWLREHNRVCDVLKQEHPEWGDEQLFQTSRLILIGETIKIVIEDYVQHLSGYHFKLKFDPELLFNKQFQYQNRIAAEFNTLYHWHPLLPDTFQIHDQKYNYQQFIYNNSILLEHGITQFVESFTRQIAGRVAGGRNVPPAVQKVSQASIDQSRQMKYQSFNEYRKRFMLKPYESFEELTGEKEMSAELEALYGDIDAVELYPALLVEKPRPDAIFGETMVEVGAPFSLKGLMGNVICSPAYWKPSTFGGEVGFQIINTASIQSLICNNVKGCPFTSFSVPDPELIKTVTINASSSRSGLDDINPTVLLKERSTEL
Conditions: specificity for COX-2 over COX-1, background statement; cited from earlier work.

SMILES strings stand for the structures.

With `COc1cc(/C=C/C(=O)CC(=O)/C=C/c2ccc(O)c(OC)c2)ccc1O` [curcumin], the IC50 – broadly, the concentration at which inhibition is half-maximal – in assay [1] is 27.1 µM.

As for `CC(=O)Oc1ccccc1C(=O)O` [aspirin], in assay [2], the “reported COX-2 specificity” value is recorded as 0.6.
